This note sets out measurements from article PMC6385203, “Mutations in the palm domain disrupt modulation of acid-sensing ion channel 1a currents by neuropeptides” (Scientific Reports, 2019).

This assay deals with T1, ASIC1a F302A (Homo sapiens, UniProt P78348, F302A).
T1 construct: expressed in transfected cells; host or cells: Xenopus laevis oocytes injected with cRNA
T1 sequence (P78348 1-528 F302A): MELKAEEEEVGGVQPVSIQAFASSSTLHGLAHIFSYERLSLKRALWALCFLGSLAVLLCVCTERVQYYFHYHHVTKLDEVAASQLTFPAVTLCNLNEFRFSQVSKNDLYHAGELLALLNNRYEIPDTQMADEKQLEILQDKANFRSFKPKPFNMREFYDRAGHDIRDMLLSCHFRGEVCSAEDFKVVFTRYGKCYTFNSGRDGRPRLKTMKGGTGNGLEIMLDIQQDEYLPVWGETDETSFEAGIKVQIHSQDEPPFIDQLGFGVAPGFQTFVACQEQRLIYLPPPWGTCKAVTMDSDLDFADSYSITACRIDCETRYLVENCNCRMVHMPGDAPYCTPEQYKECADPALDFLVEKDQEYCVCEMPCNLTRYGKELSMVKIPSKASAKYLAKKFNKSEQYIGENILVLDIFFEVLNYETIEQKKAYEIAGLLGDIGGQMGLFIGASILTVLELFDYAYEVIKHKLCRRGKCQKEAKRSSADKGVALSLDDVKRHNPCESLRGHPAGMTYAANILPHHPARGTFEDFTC
The experiment in a line: Isust/Ipeak, TEVC in Xenopus oocytes. The assay is classed as cell-based. The note with it: pH5, n = 8–10, mean ± SEM, read-out: EC50 of FRRFa-mediated sustained current induction. From the text: To scan the pocket and predicted entrance area with mutagenesis, we chose the residues with a potential to form hydrophobic (Ile312, Val187), aromatic (Phe 257, Phe301, Phe302) or electrostatic (Glu254, Asp303, Ser199, Asp253, Glu315) interactions with the peptide. For this analysis, we used mutation to Ala, and complemented the scan with mutation to Cys and subsequent chemical modification only for a selected residue. […] Phe302 is part of a loop connecting palm and thumb domains in the close neighbourhood of the thumb base. The observed increased Isust/Ipeak ratio of F302A (Fig. 4b,e) could simply be due to a better accessibility of the cavity of the putative RFa binding site in the thumb base, because Phe302 has a larger side chain than has Ala to which it was mutated. To test this hypothesis, we mutated Phe302 to Cys and exposed the mutant to the sulfhydryl reagent trimethylammonium-methyl methanethiosulfonate ([…]; 1 mM during 3 min) before the exposure to FRRFa. […]
Electrophysiological measurements were performed 1–2 days after cRNA injection. Ion currents were recorded using two-electrode voltage-clamp at a holding potential of −60 mV with a Dagan TEV-200 amplifier (Minneapolis, MN). […] The amplitude of the sustained current was measured in the last two seconds of the pH5 perfusion. […]

Peptide text beside a SMILES is read from it.

Take `N=C(N)NCCC[C@H](NC(=O)[C@H](CCCNC(=N)N)NC(=O)[C@@H](N)Cc1ccccc1)C(=O)N[C@@H](Cc1ccccc1)C(N)=O` [FRRFa, Phe-Arg-Arg-Phe-amide] (H-FRRF-NH2): the EC50 worked out at 11 ± 2 µM.

Usually EC50 stands for the concentration that produces a half-maximal response.
